From article PMC5903241 (British Journal of Clinical Pharmacology, 2018)
Where “and” joins values, the source holds several entries; their conditions need not be identical. Identical values can stand only once. Like-named read-outs stand apart in the source and are kept apart here.

Columns and labels:
[1] = furosemide 40 mg alone, geometric least squares mean
[2] = format: in vivo, healthy subjects; details: mean (SD)
[3] = Safety assessments; format: in vivo, healthy subjects; details: for Pulse rate / Supine diastolic blood pressure / Supine systolic blood pressure: mean ± SD; for eGFR: mean ± standard deviation, baseline 107.8 ± 10.9
[4] = format: in vivo, healthy subjects; details: for Tmax / AUC / Cmax: human, plasma, oral; for AUC: AUCtau, steady state; for AUC / Cmax: mean (SD); for Cmax: Cmax,ss; for Estimated geometric mean ratio of AUCtau / Estimated geometric mean ratio of Cmax,ss: sacubitril/valsartan + furosemide vs sacubitril/valsartan alone
[5] = urine, 4 to 8 h after furosemide
[6] = 200 mg, sacubitril/valsartan 200 mg twice daily alone
[7] = sacubitril/valsartan 200 mg twice daily + furosemide 40 mg single dose

Compound	Tmax ([4]; 200 mg) [h]	AUC [4, 6] [ng·h/mL]	Cmax [4, 6] [ng/mL]	AUC [4, 7] [ng·h/mL]	Cmax [4, 7] [ng/mL]	Estimated geometric mean ratio of AUCtau [4]	Estimated geometric mean ratio of Cmax,ss [4]	Pulse rate [3] [bpm]	Supine diastolic blood pressure [3] [mmHg]	Supine systolic blood pressure [3] [mmHg]	eGFR [3] [ml min^–1 1.73 m^–2]	further results
NS(=O)(=O)c1cc(C(=O)O)c(NCc2ccco2)cc1Cl [Furosemide, furosemide]	–	–	–	–	–	–	–	71.0 ± 9.7	71.6 ± 6.1	115.5 ± 12.2	103.1 ± 12.5	Ae0–4, amount excreted in urine ([1]; 0 to 4 h): 8.03 mg; Ae0–24, amount excreted in urine ([1]; 0 to 24 h): 12.54 mg; Urine volume, Volume0–4 ([2]; 0 to 4 h after furosemide): 1640.00 (413.49) ml; Urine volume, Volume0–24 ([2]; 0 to 24 h after furosemide): 3816.07 (533.04) ml; Urine volume, Volume4–8 ([2]; 4 to 8 h after furosemide): 585.36 (204.30) ml; Potassium Ae0–4 ([2]; urine, 0 to 4 h after furosemide): 22.87 (5.60) mmol; Sodium Ae0–4 ([2]; urine, 0 to 4 h after furosemide, listed as Furosemide alone): 128.87 mmol and 128.87 (42.36) mmol; Potassium Ae0–24 ([2]; urine, 0 to 24 h after furosemide): 60.35 (8.08) mmol; Sodium Ae0–24 ([2]; urine, 0 to 24 h after furosemide, listed as Furosemide alone): 198.68 mmol and 198.68 (34.95) mmol; Potassium Ae4–8 [2, 5]: 10.04 (3.74) mmol; Sodium Ae4–8 [2, 5]: 21.57 (12.89) mmol; subjects reporting AE back pain ([3]; one subject of 28): 3.6%; subjects reporting AEs ([3]; when treated with furosemide, 28 subjects): Two subjects reported AEs
sacubitril/valsartan	–	–	–	–	–	–	–	71.6 ± 9.9	67.5 ± 7.9	111.1 ± 10.7	107.7 ± 12.5	subjects reporting AEs diarrhoea, headache and presyncope (each) ([3]; each reported by one subject of 28, sacubitril/valsartan alone): 3.6%

Second part, led by results:

Tmax ([4]; 200 mg) [h]	AUC [4, 6] [ng·h/mL]	Cmax [4, 6] [ng/mL]	AUC [4, 7] [ng·h/mL]	Cmax [4, 7] [ng/mL]	Estimated geometric mean ratio of AUCtau [4]	Estimated geometric mean ratio of Cmax,ss [4]	Compound	Pulse rate [3] [bpm]	Supine diastolic blood pressure [3] [mmHg]	Supine systolic blood pressure [3] [mmHg]	eGFR [3] [ml min^–1 1.73 m^–2]	further results
0.52	2330	1740	2330	1810	1.01	1.04	CCOC(=O)[C@H](C)C[C@@H](Cc1ccc(-c2ccccc2)cc1)NC(=O)CCC(=O)O [Sacubitril, sacubitril]	–	–	–	–	–
2	79600	11800	86100	12700	1.08	1.08	C[C@H](C[C@@H](Cc1ccc(-c2ccccc2)cc1)NC(=O)CCC(=O)O)C(=O)O [Sacubitrilat, sacubitrilat]	–	–	–	–	–
1.75	18900	3860	21000	4250	1.16	1.16	CCCCC(=O)N(Cc1ccc(-c2ccccc2-c2nnn[nH]2)cc1)[C@H](C(=O)O)C(C)C [Valsartan, valsartan]	–	–	–	–	coefficient of variation of pharmacokinetic parameters ([4]; valsartan pharmacokinetic parameters): 35.8%; increase of AUCtau when coadministered with furosemide ([4]; vs sacubitril/valsartan alone): 16%; increase of Cmax,ss when coadministered with furosemide ([4]; vs sacubitril/valsartan alone): 16%
